Measurements published in patent US20260258035A1, “FIVE-MEMBERED AND SIX-MEMBERED NITROGEN-CONTAINING COMPOUND, AND INTERMEDIATE, PREPARATION METHOD AND USE THEREOF” (HANGZHOU SYNRX THERAPEUTICS BIOMEDICAL TECHNOLOGY CO., LTD., priority 2022, published 2026).
Like-named read-outs stand apart in the source and are kept apart here.

Assays:
[1] = target: PARG (Homo sapiens, UniProt Q86W56); test: Biochemical assay (PARG, TFMU-ADPr substrate)
[2] = test system: HCC1806; test: Cell viability assay (CellTiter-Glo); assay type: cell-based, Human; details: HCC1806, 7 days, CellTiter-Glo, read-out: IC50 (nM) in cell viability assay
[3] = 4 nM PARG, 66.2 uM TFMU-ADPr, 3 min at room temperature

Chain of PARG (Q86W56 whole entry): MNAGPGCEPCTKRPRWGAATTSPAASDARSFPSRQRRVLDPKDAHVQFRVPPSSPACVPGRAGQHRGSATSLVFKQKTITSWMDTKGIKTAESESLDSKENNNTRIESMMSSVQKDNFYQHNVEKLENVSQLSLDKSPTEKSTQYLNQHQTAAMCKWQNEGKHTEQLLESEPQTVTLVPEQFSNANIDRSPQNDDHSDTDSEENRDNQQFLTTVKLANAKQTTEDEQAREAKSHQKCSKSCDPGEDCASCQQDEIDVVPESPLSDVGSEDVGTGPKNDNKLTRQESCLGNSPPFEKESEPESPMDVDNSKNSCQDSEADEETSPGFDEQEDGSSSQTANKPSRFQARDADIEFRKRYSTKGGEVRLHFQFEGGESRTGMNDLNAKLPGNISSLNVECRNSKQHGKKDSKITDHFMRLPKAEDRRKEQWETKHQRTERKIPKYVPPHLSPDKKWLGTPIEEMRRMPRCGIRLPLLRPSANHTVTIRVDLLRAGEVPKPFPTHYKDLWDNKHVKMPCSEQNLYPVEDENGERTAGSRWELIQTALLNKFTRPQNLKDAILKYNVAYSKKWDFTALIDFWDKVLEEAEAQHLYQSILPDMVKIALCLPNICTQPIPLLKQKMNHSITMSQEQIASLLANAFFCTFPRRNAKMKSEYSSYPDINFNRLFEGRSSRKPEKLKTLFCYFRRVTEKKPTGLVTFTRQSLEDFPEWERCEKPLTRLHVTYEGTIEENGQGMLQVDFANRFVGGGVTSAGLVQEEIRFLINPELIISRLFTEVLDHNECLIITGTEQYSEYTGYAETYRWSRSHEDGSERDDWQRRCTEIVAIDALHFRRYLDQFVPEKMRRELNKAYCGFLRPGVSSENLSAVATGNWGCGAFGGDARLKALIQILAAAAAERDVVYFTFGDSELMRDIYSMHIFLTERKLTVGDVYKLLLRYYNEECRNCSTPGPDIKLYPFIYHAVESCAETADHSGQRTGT

SMILES: CC1(C(=O)N2CCN(c3cc(S(=O)(=O)NC4(C#N)CC4)cn4c(-c5nnc(C(F)(F)F)s5)ncc34)CC2)CC1 [Example 225, N-(1-cyanocyclopropyl)-8-(4-(1-methylcyclopropane-1-carbonyl)piperazin-1-yl)-3-(5-(trifluoromethyl)-1,3,4-thiadiazol-2-yl)imidazo[1,5-a]pyridine-6-sulfonamide]
- IC50 ([1]; PARG, TFMU-ADPr substrate): 7.94 nM
- IC50 ([2]; Homo sapiens, HCC1806, 168 h): 600 nM

SMILES: COC[C@@H]1CN(c2cc(S(=O)(=O)NC3(C#N)CC3)cn3c(-c4nnc(C(F)F)s4)ncc23)CCN1C(=O)C(C)C [Example 223, (S)-N-(1-cyanocyclopropyl)-3-(5-(difluoromethyl)-1,3,4-thiadiazol-2-yl)-8-(4-isobutyryl-3-(methoxymethyl)piperazin-1-yl)imidazo[1,5-a]pyridine-6-sulfonamide]
- IC50 ([1]; PARG, TFMU-ADPr substrate): 1.45 nM
- IC50 ([2]; Homo sapiens, HCC1806, 168 h): 250 nM

SMILES: CC1(NS(=O)(=O)c2cc(N3CCN(C(=O)[C@H]4CCN4)CC3)c3cnc(-c4nnc(C(F)(F)F)s4)n3c2)CC1 [Example 286, (R)-8-(4-(azetidine-2-carbonyl)piperazin-1-yl)-N-(1-methylcyclopropyl)-3-(5-(trifluoromethyl)-1,3,4-thiadiazol-2-yl)imidazo[1,5-a]pyridine-6-sulfonamide]
- IC50 ([1]; PARG, TFMU-ADPr substrate): 3.98 nM
- IC50 ([2]; Homo sapiens, HCC1806, 168 h): 235 nM

SMILES: CC(C)C(=O)N1CCN(c2cc(S(=O)(=O)NC3(C)CNC3)cn3c(-c4nnc(C(F)F)s4)ncc23)CC1 [Example 50, 3-(5-(difluoromethyl)-1,3,4-thiadiazol-2-yl)-8-(4-isobutyrylpiperazin-1-yl)-N-(3-methylazetidin-3-yl)imidazo[1,5-a]pyridine-6-sulfonamide]
- IC50 [1, 3]: > 1000 nM
- IC50 ([2]; Homo sapiens, HCC1806, 168 h): > 30000 nM

SMILES: COCC1CN(c2cc(S(=O)(=O)NC3(CF)COC3)cn3c(-c4nnc(C(F)F)s4)nc(Cl)c23)CCN1 (stereo not shown) [Example 136, 1-chloro-3-(5-(difluoromethyl)-1,3,4-thiadiazol-2-yl)-N-(3-(fluoromethyl)oxetan-3-yl)-8-(3-(methoxymethyl)piperazin-1-yl)imidazo[1,5-a]pyridine-6-sulfonamide]
- IC50 ([1]; PARG, TFMU-ADPr substrate): 7.94 nM
- IC50 ([2]; Homo sapiens, HCC1806, 168 h): 199 nM

SMILES: COC1(C(=O)N2CCN(c3cc(S(=O)(=O)NC4(C#N)CC4)cn4c(-c5nnc(C(F)(F)F)s5)ncc34)CC2)CC1 [Example 228, N-(1-cyanocyclopropyl)-8-(4-(1-methoxycyclopropane-1-carbonyl)piperazin-1-yl)-3-(5-(trifluoromethyl)-1,3,4-thiadiazol-2-yl)imidazo[1,5-a]pyridine-6-sulfonamide]
- IC50 ([1]; PARG, TFMU-ADPr substrate): 0.38 nM
- IC50 ([2]; Homo sapiens, HCC1806, 168 h): 107 nM

SMILES: N#CC1(NS(=O)(=O)c2cc(N3CCC(n4cncn4)CC3)c3cnc(-c4nnc(C(F)(F)F)s4)n3c2)CC1 [Example 213, 8-(4-(1H-1,2,4-triazol-1-yl)piperidin-1-yl)-N-(1-cyanocyclopropyl)-3-(5-(trifluoromethyl)-1,3,4-thiadiazol-2-yl)imidazo[1,5-a]pyridine-6-sulfonamide]
- IC50 ([1]; PARG, TFMU-ADPr substrate): 31.6 nM
- IC50 ([2]; Homo sapiens, HCC1806, 168 h): 1200 nM

SMILES: CC1(NS(=O)(=O)c2cc(N3CCO[C@H](CO)C3)c3cnc(-c4nnc(C(F)F)s4)n3c2)CC1 [Example 342, (S)-3-(5-(difluoromethyl)-1,3,4-thiadiazol-2-yl)-8-(2-(hydroxymethyl)morpholino)-N-(1-methylcyclopropyl)imidazo[1,5-a]pyridine-6-sulfonamide]
- IC50 ([1]; PARG, TFMU-ADPr substrate): 3.04 nM
- IC50 ([2]; Homo sapiens, HCC1806, 168 h): 297 nM

SMILES: CC#CC(C)(O)C(=O)N1CCN(c2cc(S(=O)(=O)NC3(C#N)CC3)cn3c(-c4nnc(C(F)(F)F)s4)ncc23)CC1 (stereo not shown) [Example 256, N-(1-cyanocyclopropyl)-8-(4-(2-hydroxy-2-methylpent-3-ynoyl)piperazin-1-yl)-3-(5-(trifluoromethyl)-1,3,4-thiadiazol-2-yl)imidazo[1,5-a]pyridine-6-sulfonamide]
- IC50 ([1]; PARG, TFMU-ADPr substrate): 8.71 nM
- IC50 ([2]; Homo sapiens, HCC1806, 168 h): 80 nM

SMILES: CC(C)C(=O)N1CCN(c2cc(S(=O)(=O)NC3(C#N)CC3)cn3c(-c4nnc(C(F)F)s4)nnc23)CC1 [Example 105, N-(1-cyanocyclopropyl)-3-(5-(difluoromethyl)-1,3,4-thiadiazol-2-yl)-8-(4-isobutyrylpiperazin-1-yl)-[1,2,4]triazolo[4,3-a]pyridine-6-sulfonamide]
- IC50 [1, 3]: < 100 nM
- IC50 ([1]; PARG, TFMU-ADPr substrate): 78.6 nM
- IC50 [2]: 10000 nM
- IC50 ([2]; Homo sapiens, HCC1806, 168 h): 5000 to 30000 nM

SMILES: C[C@@H]1CN(c2cc(S(=O)(=O)NC3(C)COC3)cn3c(-c4nnc(C(F)F)s4)ncc23)C[C@@H](C)N1 [Example 180, 3-(5-(difluoromethyl)-1,3,4-thiadiazol-2-yl)-8-((3R,5R)-3,5-dimethylpiperazin-1-yl)-N-(3-methyloxetan-3-yl)imidazo[1,5-a]pyridine-6-sulfonamide]
- IC50 ([1]; PARG, TFMU-ADPr substrate): 5.62 nM
- IC50 ([2]; Homo sapiens, HCC1806, 168 h): 517 nM

SMILES: COCC1(O)CCN(c2cc(S(=O)(=O)NC3(C)CC3)cn3c(-c4nnc(C(F)F)s4)ncc23)CC1 [Example 346, 3-(5-(difluoromethyl)-1,3,4-thiadiazol-2-yl)-8-(4-hydroxy-4-(methoxymethyl)piperidin-1-yl)-N-(1-methylcyclopropyl)imidazo[1,5-a]pyridine-6-sulfonamide]
- IC50 ([1]; PARG, TFMU-ADPr substrate): 1.53 nM
- IC50 ([2]; Homo sapiens, HCC1806, 168 h): 109 nM

SMILES: CC(C)C(=O)N1CCN(c2cc(S(=O)(=O)NC3CC3)cn3c(-c4nnc(C(F)(F)F)s4)nnc23)CC1 [Example 387, N-cyclopropyl-8-(4-isobutyrylpiperazin-1-yl)-3-(5-(trifluoromethyl)-1,3,4-thiadiazol-2-yl)-[1,2,4]triazolo[4,3-a]pyridine-6-sulfonamide]
- IC50 ([1]; PARG, TFMU-ADPr substrate): 38 nM
- IC50 ([2]; Homo sapiens, HCC1806, 168 h): 800 nM

SMILES: CC(C)OCC1CN(c2cc(S(=O)(=O)NC3(C)COC3)cn3c(-c4nnc(C(F)F)s4)ncc23)CCN1 (stereo not shown) [Example 361, 3-(5-(difluoromethyl)-1,3,4-thiadiazol-2-yl)-8-(3-(isopropoxymethyl)piperazin-1-yl)-N-(3-methyloxetan-3-yl)imidazo[1,5-a]pyridine-6-sulfonamide]
- IC50 ([1]; PARG, TFMU-ADPr substrate): 18.2 nM
- IC50 ([2]; Homo sapiens, HCC1806, 168 h): 642 nM

SMILES: CC(C)(F)C(=O)N1CCN(c2cc(S(=O)(=O)NC3(C#N)CC3)cn3c(-c4nnc(C(F)(F)F)s4)ncc23)CC1 [Example 224, N-(1-cyanocyclopropyl)-8-(4-(2-fluoro-2-methylpropanoyl)piperazin-1-yl)-3-(5-(trifluoromethyl)-1,3,4-thiadiazol-2-yl)imidazo[1,5-a]pyridine-6-sulfonamide]
- IC50 ([1]; PARG, TFMU-ADPr substrate): 13.8 nM
- IC50 ([2]; Homo sapiens, HCC1806, 168 h): 1020 nM

SMILES: [2H]C([2H])([2H])OCC1CN(c2cc(S(=O)(=O)NC3(C)COC3)cn3c(-c4nnc(C(F)F)s4)ncc23)CCN1 (stereo not shown) [Example 392, 3-(5-(difluoromethyl)-1,3,4-thiadiazol-2-yl)-8-(3-((methoxy-d3)methyl)piperazin-1-yl)-N-(3-methyloxetan-3-yl)imidazo[1,5-a]pyridine-6-sulfonamide]
- IC50 ([1]; PARG, TFMU-ADPr substrate): 11 nM
- IC50 ([2]; Homo sapiens, HCC1806, 168 h): 132 nM

SMILES: CC(C)C(=O)N1CCN(c2cc(S(=O)(=O)NC3(C#N)CC3)cn3c(-c4nnc(C(F)F)s4)cnc23)C[C@H]1C [Example 206, (R)-N-(1-cyanocyclopropyl)-3-(5-(difluoromethyl)-1,3,4-thiadiazol-2-yl)-8-(4-isobutyryl-3-methylpiperazin-1-yl)imidazo[1,2-a]pyridine-6-sulfonamide]
- IC50 ([1]; PARG, TFMU-ADPr substrate): 21.9 nM
- IC50 ([2]; Homo sapiens, HCC1806, 168 h): 1180 nM

SMILES: N#CC1(NS(=O)(=O)c2cc(N3CCN(C(=O)[C@@H]4C[C@@H](O)CN4)CC3)c3cnc(-c4nnc(C(F)(F)F)s4)n3c2)CC1 [Example 279, N-(1-cyanocyclopropyl)-8-(4-((2S,4R)-4-hydroxypyrrolidine-2-carbonyl)piperazin-1-yl)-3-(5-(trifluoromethyl)-1,3,4-thiadiazol-2-yl)imidazo[1,5-a]pyridine-6-sulfonamide]
- IC50 ([1]; PARG, TFMU-ADPr substrate): 95.5 nM
- IC50 ([2]; Homo sapiens, HCC1806, 168 h): 29900 nM

SMILES: N#CC1(NS(=O)(=O)c2cc(N3CCN(C(=O)C4CC4(F)F)CC3)c3cnc(-c4nnc(C(F)(F)F)s4)n3c2)CC1 (stereo not shown) [Example 240, N-(1-cyanocyclopropyl)-8-(4-(2,2-difluorocyclopropane-1-carbonyl)piperazin-1-yl)-3-(5-(trifluoromethyl)-1,3,4-thiadiazol-2-yl)imidazo[1,5-a]pyridine-6-sulfonamide]
- IC50 ([1]; PARG, TFMU-ADPr substrate): 13.2 nM
- IC50 ([2]; Homo sapiens, HCC1806, 168 h): 2440 nM

SMILES: [2H]C([2H])([2H])OC1(C(=O)N2CCN(c3cc(S(=O)(=O)NC4(C)CC4)cn4c(-c5nnc(C(F)(F)F)s5)ncc34)CC2)CC1 [Example 168, 8-(4-(1-(methoxy-d3)cyclopropane-1-carbonyl)piperazin-1-yl)-N-(1-methylcyclopropyl)-3-(5-(trifluoromethyl)-1,3,4-thiadiazol-2-yl)imidazo[1,5-a]pyridine-6-sulfonamide]
- IC50 ([1]; PARG, TFMU-ADPr substrate): 0.15 nM
- IC50 ([2]; Homo sapiens, HCC1806, 168 h): 14 nM

SMILES: Cc1nnc(-c2cnn3c(N4CCN(C(=O)C(C)C)CC4)cc(S(=O)(=O)NC4(C#N)CC4)cc23)s1 [Example 30, N-(1-cyanocyclopropyl)-7-(4-isobutyrylpiperazin-1-yl)-3-(5-methyl-1,3,4-thiadiazol-2-yl)pyrazolo[1,5-a]pyridine-5-sulfonamide]
- IC50 [1, 3]: < 100 nM
- IC50 ([1]; PARG, TFMU-ADPr substrate): 88.9 nM
- IC50 ([2]; Homo sapiens, HCC1806, 168 h): > 30000 nM

SMILES: N#CC1(NS(=O)(=O)c2cc(N3CCN(C(=O)C4CC(N)C4)CC3)c3cnc(-c4nnc(C(F)(F)F)s4)n3c2)CC1 (stereo not shown) [Example 273, 8-(4-(3-aminocyclobutane-1-carbonyl)piperazin-1-yl)-N-(1-cyanocyclopropyl)-3-(5-(trifluoromethyl)-1,3,4-thiadiazol-2-yl)imidazo[1,5-a]pyridine-6-sulfonamide]
- IC50 ([1]; PARG, TFMU-ADPr substrate): 1.91 nM
- IC50 ([2]; Homo sapiens, HCC1806, 168 h): 5940 nM

SMILES: N#CC1(NS(=O)(=O)c2cc(N3CCN(C(=O)C4(O)CC4)CC3)c3cnc(-c4nnc(C(F)(F)F)s4)n3c2)CC1 [Example 237, N-(1-cyanocyclopropyl)-8-(4-(1-hydroxycyclopropane-1-carbonyl)piperazin-1-yl)-3-(5-(trifluoromethyl)-1,3,4-thiadiazol-2-yl)imidazo[1,5-a]pyridine-6-sulfonamide]
- IC50 ([1]; PARG, TFMU-ADPr substrate): 2.88 nM
- IC50 ([2]; Homo sapiens, HCC1806, 168 h): 4390 nM
